Reference: patent US6306869A, “N-oxides” (Byk Gulden Lomberg Chemische Febrik GmbH, priority 1998, dated 2001)

Assays:
[1] = target: PDE4 (cAMP-specific); experiment: Inhibition of PDE isoenzymes: PDE4; assay type: biochemical; details: cytosol of human polymorphonuclear leukocytes (PMNL), cAMP as substrate, motapizone 1 μM present
[2] = target: T1, PDE3 (cGMP-inhibited) (Homo sapiens, UniProt Q14432); experiment: Inhibition of PDE isoenzymes: PDE3; assay type: biochemical; details: homogenates of human blood platelets, cAMP as substrate; read-out: PDE3 [-loglC50,mol/l] (converted)
T1 construct: were investigated in homogenates of human blood platelets; from tissue; host or cells: homogenates of human blood platelets
T1 sequence (Q14432 whole entry): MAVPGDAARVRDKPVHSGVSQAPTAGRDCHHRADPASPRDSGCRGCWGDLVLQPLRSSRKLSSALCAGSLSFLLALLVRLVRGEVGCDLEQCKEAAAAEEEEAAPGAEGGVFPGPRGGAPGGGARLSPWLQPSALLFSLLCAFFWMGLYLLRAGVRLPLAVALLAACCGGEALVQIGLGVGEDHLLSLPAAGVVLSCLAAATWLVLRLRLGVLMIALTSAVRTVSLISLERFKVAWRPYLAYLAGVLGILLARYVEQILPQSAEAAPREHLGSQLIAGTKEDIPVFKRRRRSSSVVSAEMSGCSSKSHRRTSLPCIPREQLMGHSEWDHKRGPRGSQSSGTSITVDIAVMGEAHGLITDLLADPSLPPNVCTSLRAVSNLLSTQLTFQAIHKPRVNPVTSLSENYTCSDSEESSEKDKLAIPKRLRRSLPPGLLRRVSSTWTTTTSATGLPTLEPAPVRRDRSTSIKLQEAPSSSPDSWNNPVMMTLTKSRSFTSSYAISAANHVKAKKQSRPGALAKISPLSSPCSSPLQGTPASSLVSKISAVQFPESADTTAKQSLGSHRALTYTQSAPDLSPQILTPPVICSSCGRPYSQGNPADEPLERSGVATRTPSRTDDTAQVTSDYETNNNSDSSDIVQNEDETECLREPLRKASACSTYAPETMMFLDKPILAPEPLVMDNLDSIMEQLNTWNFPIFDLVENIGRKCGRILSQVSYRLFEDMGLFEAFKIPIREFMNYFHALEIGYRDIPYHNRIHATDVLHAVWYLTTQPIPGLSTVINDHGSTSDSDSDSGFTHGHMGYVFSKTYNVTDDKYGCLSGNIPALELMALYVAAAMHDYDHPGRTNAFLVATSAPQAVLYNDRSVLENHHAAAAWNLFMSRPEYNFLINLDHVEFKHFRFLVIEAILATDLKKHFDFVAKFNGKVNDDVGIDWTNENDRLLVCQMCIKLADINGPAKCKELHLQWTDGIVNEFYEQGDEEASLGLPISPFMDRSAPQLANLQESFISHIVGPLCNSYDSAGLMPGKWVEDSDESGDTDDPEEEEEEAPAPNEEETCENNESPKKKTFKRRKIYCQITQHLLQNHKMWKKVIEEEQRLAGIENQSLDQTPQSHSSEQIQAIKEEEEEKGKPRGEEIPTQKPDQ
Description: The PDE activity was determined according to Thompson et al. (1) with some modifications (2). The test samples contained 40 mM tris HCl (pH 7.4), 5 mM MgCl2, 0.5 μM cAMP or cGMP, [^3 H] cAMP or [3H]CGMP (about 50,000 cpm/sample), the PDE isoenzyme-specific additions described in greater detail below, the indicated concentrations of inhibitor and an aliquot of the enzyme solution in a total sample volume of 200 μl. […] After preincubation at 37° C. for 5 minutes, the reaction was started by addition of the substrate (cAMP or cGMP). The samples were incubated at 37° C. for a further 15 min. The reaction was terminated by addition of 50 μl of 0.2 N HCl. After cooling on ice for 10 minutes and addition of 25 μg of 5'-nucleotidase (snake venom from Crotalus atrox), the mixture was again incubated at 37° C. for 10 min and the samples were then applied to QAE Sephadex A-25 columns. The columns were eluted with 2 ml of 30 mM ammonium formate (pH 6.0). The radioactivity of the eluate was measured and corrected by the corresponding blank values. The proportion of hydrolysed nucleotide in no case exceeded 20% of the original substrate concentration.
PDE3 (cGMP-inhibited) and PDE5 (cGMP-specific) were investigated in homogenates of human blood platelets [Schudt et al. (4)] using cAMP or cGMP as a substrate.
The IC50 values were determined from the concentration-inhibition curves by nonlinear regression using the GraphPad InPlot™ program (GraphPad Software Inc., […], USA).

Row | Structure (SMILES) | PDE4 [-loglC50,mol/l] [1] | IC50 [2]
1 | CCCCN(CCCC)C(=O)c1ccc(C2=N[C@@H]3CC[N+](C)([O-])C[C@@H]3c3cc(OCC)c(OC)cc32)cc1 (relative stereo) [Compound 2, cis-9-ethoxy-2-methyl-8-methoxy-6-(4-dibutylaminocarbonylphenyl)-1 ,2,3,4,4a,10b-hexahydrobenzo[c][1,6]naphthyridine N-2-oxide] | 7.98 | 1070 nM
2 | CCCCN(CCCC)C(=O)c1ccc(C2=N[C@@H]3CC[N+](C)([O-])C[C@@H]3c3cc(OCCC)c(OC)cc32)cc1 (relative stereo) [Compound 3, cis-8-methoxy-2-methyl-9-propoxy-6-(4-dibutylaminocarbonylphenyl)-1 ,2,3,4,4a,10b-hexahydrobenzo[c][1,6]naphthyridine N-2-oxide] | 7.53 | 2090 nM
3 | CCOc1cc2c(cc1OC)C(c1ccc(C(=O)N(C(C)C)C(C)C)cc1)=N[C@@H]1CC[N+](C)([O-])C[C@H]21 (single isomer, unassigned) [Compound 1, cis-9-ethoxy-8-methoxy-2-methyl-6-(4-diisopropylaminocarbonylphenyl)-1,2,3,4,4a,10b-hexahydrobenzo[c][1,6]naphthyridine N-2-oxide] | 7.20 | 776 nM
